Values of other authors in US20150346185A1, “DIAGNOSIS OF CYSTIC FIBROSIS” (priority 2012, published 2015).

Target: T1, Na+ channel ENaC (Homo sapiens, UniProt P37088+P51168+P51170)
T1 construct: from tissue; host or cells: human nasal epithelium (healthy individuals and cystic fibrosis patients)
Settings: healthy patients, infusion of amiloride

T1 sequence (P51168 whole entry): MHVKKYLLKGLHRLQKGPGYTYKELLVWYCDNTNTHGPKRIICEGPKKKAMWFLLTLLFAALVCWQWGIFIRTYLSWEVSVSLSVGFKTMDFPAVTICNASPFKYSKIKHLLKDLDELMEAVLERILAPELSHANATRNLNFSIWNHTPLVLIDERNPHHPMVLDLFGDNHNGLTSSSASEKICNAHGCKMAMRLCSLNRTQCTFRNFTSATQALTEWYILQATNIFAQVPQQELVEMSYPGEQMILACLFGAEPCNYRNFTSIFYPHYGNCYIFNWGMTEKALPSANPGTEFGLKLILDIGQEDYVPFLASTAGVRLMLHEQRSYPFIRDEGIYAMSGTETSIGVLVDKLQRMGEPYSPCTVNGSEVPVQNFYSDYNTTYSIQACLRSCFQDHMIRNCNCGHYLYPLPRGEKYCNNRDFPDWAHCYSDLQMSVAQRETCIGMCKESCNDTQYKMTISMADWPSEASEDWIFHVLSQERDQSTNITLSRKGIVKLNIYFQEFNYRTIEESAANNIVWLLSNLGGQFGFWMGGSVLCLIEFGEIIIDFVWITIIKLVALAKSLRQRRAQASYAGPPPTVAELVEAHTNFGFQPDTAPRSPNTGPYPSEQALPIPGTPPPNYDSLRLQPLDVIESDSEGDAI
T1 sequence (P37088 whole entry): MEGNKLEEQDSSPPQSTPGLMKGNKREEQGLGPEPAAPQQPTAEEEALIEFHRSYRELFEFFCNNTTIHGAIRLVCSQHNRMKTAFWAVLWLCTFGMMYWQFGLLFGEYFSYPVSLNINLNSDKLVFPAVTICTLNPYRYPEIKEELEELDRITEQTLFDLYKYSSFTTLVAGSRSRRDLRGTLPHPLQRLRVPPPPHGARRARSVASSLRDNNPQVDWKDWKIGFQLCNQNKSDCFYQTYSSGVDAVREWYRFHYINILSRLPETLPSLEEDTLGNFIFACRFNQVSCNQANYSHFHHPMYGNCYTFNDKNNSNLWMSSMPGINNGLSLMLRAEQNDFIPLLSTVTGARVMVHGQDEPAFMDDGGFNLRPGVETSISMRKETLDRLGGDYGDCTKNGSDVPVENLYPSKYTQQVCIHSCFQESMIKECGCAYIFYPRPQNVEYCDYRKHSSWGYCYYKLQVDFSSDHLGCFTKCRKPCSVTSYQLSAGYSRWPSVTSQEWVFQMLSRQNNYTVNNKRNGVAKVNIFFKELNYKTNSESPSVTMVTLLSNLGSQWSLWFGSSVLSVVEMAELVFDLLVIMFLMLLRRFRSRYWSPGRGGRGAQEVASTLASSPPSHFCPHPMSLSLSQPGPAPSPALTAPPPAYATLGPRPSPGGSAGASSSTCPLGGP
T1 sequence (P51170 whole entry): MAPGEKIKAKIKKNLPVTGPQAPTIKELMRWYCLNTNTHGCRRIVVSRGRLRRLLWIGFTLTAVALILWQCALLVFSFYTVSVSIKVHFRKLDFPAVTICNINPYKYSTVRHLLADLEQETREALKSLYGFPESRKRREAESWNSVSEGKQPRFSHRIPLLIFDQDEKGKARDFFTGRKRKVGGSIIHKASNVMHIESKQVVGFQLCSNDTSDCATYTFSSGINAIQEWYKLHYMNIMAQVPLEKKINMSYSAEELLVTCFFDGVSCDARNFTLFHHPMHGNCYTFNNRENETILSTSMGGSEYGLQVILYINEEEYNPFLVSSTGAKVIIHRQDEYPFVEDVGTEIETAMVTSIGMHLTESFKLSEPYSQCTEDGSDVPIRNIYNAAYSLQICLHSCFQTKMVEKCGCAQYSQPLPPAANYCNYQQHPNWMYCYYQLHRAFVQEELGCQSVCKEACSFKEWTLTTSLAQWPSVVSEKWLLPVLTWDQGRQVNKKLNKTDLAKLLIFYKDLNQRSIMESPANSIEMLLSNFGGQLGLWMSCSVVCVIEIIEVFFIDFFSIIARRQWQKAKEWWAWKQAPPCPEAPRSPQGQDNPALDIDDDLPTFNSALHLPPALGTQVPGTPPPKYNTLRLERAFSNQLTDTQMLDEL

N=C(N)NC(=O)c1nc(Cl)c(N)nc1N [amiloride]
reduction of nasal transepithelial potential difference: 55%
